Reference: the kinase profiling compilation of Christmann-Franck et al. (2016)

Target: STK33 (human) (UniProt Q9BYT3)
Experiment: radiometric filter-binding kinase assay
Settings: compound 100.0 µM; ATP 50 µM

| SMILES | inhibition |
| --- | --- |
| CC(C)(C)Nc1c(C2CC2)nc2[nH]cnn12 | 0% |
| O=c1cc(-c2ccccc2F)nc2[nH]ccn12 | 12% |

Target: PRKCG (human) (UniProt P05129)
Experiment: radiometric filter-binding kinase assay
Settings: compound 100.0 µM; ATP 20 µM

| SMILES | inhibition |
| --- | --- |
| CC(=O)Nc1nc2cnc(-c3c(C)cccc3C)cn2n1 | 12% |
| CC(C)(C)Nc1c(C2CC2)nc2[nH]cnn12 | 9% |
| O=c1cc(-c2ccccc2F)nc2[nH]ccn12 | 7% |

Target: YES1 (human) (UniProt P07947)
Experiment: radiometric filter-binding kinase assay
Settings: compound 100.0 µM; ATP 20 µM

| SMILES | inhibition |
| --- | --- |
| CC(=O)Nc1nc2cnc(-c3c(C)cccc3C)cn2n1 | 17% |
| CC(C)(C)Nc1c(C2CC2)nc2[nH]cnn12 | 0% |
| O=c1cc(-c2ccccc2F)nc2[nH]ccn12 | 33% |

Target: PRKCZ (human) (UniProt Q05513)
Experiment: radiometric filter-binding kinase assay
Settings: compound 100.0 µM; ATP 5 µM

| SMILES | inhibition |
| --- | --- |
| CC(=O)Nc1nc2cnc(-c3c(C)cccc3C)cn2n1 | 0% |
| CC(C)(C)Nc1c(C2CC2)nc2[nH]cnn12 | 0% |
| O=c1cc(-c2ccccc2F)nc2[nH]ccn12 | 0% |

Target: IGF1R (human) (UniProt P08069)
Experiment: radiometric filter-binding kinase assay
Settings: compound 100.0 µM; ATP 5 µM

Chain of IGF1R (human) (P08069 whole entry, looked up): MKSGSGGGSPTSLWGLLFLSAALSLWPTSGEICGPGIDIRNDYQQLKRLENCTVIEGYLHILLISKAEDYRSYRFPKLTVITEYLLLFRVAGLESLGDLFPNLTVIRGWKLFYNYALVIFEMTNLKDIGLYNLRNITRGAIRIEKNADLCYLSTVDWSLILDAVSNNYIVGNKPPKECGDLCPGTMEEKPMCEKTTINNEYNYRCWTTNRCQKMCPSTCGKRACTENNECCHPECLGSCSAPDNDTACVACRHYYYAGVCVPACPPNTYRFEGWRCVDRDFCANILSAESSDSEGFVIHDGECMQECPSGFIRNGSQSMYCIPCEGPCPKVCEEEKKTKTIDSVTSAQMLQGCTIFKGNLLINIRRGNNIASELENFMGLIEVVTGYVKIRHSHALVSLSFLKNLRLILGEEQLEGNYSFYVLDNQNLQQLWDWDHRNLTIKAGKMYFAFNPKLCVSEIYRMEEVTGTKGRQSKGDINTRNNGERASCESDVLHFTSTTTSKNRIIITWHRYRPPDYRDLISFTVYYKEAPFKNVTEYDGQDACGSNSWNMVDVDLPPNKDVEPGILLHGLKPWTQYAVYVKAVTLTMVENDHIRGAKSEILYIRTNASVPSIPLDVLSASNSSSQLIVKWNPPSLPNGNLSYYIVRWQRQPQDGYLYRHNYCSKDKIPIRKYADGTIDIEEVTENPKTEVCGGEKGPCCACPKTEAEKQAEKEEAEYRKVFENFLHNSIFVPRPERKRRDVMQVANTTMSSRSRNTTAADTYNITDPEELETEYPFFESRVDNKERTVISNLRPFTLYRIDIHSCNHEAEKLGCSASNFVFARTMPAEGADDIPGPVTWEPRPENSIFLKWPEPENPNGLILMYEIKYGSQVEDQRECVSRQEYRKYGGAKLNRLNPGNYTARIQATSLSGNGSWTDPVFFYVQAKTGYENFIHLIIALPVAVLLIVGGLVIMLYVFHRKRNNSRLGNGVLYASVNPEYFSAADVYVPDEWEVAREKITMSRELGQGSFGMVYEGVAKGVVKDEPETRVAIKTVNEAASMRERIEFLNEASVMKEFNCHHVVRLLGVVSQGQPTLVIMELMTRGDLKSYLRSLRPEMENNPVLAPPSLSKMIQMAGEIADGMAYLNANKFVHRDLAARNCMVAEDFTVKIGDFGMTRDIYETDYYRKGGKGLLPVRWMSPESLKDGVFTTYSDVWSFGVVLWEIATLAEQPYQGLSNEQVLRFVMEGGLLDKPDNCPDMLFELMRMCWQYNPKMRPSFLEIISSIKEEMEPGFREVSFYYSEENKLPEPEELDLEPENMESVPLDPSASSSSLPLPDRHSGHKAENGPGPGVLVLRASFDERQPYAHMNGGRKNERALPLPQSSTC

| SMILES | inhibition |
| --- | --- |
| CC(=O)Nc1nc2cnc(-c3c(C)cccc3C)cn2n1 | 0% |
| CC(C)(C)Nc1c(C2CC2)nc2[nH]cnn12 | 0% |
| O=c1cc(-c2ccccc2F)nc2[nH]ccn12 | 28% |

Target: PIM2 (human) (UniProt Q9P1W9)
Experiment: radiometric filter-binding kinase assay
Settings: compound 100.0 µM; ATP 5 µM

Chain of PIM2 (human) (Q9P1W9 whole entry, looked up): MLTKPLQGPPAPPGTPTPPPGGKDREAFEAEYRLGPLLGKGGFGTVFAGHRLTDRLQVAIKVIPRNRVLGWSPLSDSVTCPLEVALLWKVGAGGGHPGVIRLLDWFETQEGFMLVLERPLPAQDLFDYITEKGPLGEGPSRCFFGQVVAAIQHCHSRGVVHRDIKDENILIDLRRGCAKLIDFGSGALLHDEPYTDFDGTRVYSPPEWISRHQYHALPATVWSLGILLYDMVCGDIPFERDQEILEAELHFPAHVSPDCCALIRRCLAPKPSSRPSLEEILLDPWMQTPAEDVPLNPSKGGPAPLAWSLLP

| SMILES | inhibition |
| --- | --- |
| CC(=O)Nc1nc2cnc(-c3c(C)cccc3C)cn2n1 | 5% |
| CC(C)(C)Nc1c(C2CC2)nc2[nH]cnn12 | 15% |
| O=c1cc(-c2ccccc2F)nc2[nH]ccn12 | 17% |

Target: STK3 (human) (UniProt Q13188)
Experiment: radiometric filter-binding kinase assay
Settings: compound 100.0 µM; ATP 20 µM

| SMILES | inhibition |
| --- | --- |
| CC(=O)Nc1nc2cnc(-c3c(C)cccc3C)cn2n1 | 0% |
| CC(C)(C)Nc1c(C2CC2)nc2[nH]cnn12 | 0% |
| O=c1cc(-c2ccccc2F)nc2[nH]ccn12 | 27% |

Target: BTK (human) (UniProt Q06187)
Experiment: radiometric filter-binding kinase assay
Settings: compound 100.0 µM; ATP 50 µM

Chain of BTK (human) (Q06187 whole entry, looked up): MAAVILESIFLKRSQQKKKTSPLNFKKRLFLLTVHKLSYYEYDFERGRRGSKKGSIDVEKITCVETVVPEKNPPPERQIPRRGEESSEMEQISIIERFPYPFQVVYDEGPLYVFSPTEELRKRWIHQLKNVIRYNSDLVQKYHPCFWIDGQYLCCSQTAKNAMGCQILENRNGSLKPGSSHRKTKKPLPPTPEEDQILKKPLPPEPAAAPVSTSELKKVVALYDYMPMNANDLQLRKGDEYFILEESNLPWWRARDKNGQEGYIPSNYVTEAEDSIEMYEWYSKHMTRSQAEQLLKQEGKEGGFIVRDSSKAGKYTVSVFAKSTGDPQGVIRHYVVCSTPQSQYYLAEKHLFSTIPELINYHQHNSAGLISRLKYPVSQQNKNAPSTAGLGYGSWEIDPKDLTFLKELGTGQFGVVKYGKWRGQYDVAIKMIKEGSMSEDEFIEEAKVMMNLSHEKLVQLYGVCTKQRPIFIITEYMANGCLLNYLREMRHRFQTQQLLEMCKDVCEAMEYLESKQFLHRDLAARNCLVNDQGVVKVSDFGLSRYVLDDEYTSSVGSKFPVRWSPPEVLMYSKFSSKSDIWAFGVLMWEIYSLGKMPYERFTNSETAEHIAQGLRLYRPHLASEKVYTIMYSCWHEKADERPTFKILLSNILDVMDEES

| SMILES | inhibition |
| --- | --- |
| CC(=O)Nc1nc2cnc(-c3c(C)cccc3C)cn2n1 | 0% |
| CC(C)(C)Nc1c(C2CC2)nc2[nH]cnn12 | 6% |
| O=c1cc(-c2ccccc2F)nc2[nH]ccn12 | 49% |

Target: CSNK2A1 (human) (UniProt P68400)
Experiment: radiometric filter-binding kinase assay
Settings: compound 100.0 µM; ATP 5 µM

Chain of CSNK2A1 (human) (P68400 whole entry, looked up): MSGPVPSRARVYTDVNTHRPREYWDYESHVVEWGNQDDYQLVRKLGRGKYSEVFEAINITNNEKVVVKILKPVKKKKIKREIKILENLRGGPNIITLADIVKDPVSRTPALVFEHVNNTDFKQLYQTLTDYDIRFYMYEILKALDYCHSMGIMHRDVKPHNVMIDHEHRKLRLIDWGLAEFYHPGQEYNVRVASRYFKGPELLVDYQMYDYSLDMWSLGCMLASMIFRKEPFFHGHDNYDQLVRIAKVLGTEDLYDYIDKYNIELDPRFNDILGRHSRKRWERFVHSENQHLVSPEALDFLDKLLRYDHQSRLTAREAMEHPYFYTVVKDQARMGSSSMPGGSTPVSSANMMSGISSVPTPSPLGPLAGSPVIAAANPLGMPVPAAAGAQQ

| SMILES | inhibition |
| --- | --- |
| CC(=O)Nc1nc2cnc(-c3c(C)cccc3C)cn2n1 | 0% |
| CC(C)(C)Nc1c(C2CC2)nc2[nH]cnn12 | 9% |
| O=c1cc(-c2ccccc2F)nc2[nH]ccn12 | 20% |

Target: PIM1 (human) (UniProt P11309)
Experiment: radiometric filter-binding kinase assay
Settings: compound 100.0 µM; ATP 20 µM

| SMILES | inhibition |
| --- | --- |
| CC(=O)Nc1nc2cnc(-c3c(C)cccc3C)cn2n1 | 9% |
| CC(C)(C)Nc1c(C2CC2)nc2[nH]cnn12 | 11% |
| O=c1cc(-c2ccccc2F)nc2[nH]ccn12 | 67% |

Target: MAP2K1 (human) (UniProt Q02750)
Experiment: radiometric filter-binding kinase assay
Settings: compound 100.0 µM; ATP 5 µM

| SMILES | inhibition |
| --- | --- |
| CC(=O)Nc1nc2cnc(-c3c(C)cccc3C)cn2n1 | 0% |
| CC(C)(C)Nc1c(C2CC2)nc2[nH]cnn12 | 0% |
| O=c1cc(-c2ccccc2F)nc2[nH]ccn12 | 43% |

Target: NEK2 (human) (UniProt P51955)
Experiment: radiometric filter-binding kinase assay
Settings: compound 100.0 µM; ATP 50 µM

| SMILES | inhibition |
| --- | --- |
| CC(=O)Nc1nc2cnc(-c3c(C)cccc3C)cn2n1 | 0% |
| CC(C)(C)Nc1c(C2CC2)nc2[nH]cnn12 | 0% |
| O=c1cc(-c2ccccc2F)nc2[nH]ccn12 | 29% |

Target: BRSK2 (human) (UniProt Q8IWQ3)
Experiment: radiometric filter-binding kinase assay
Settings: compound 100.0 µM; ATP 50 µM

| SMILES | inhibition |
| --- | --- |
| CC(=O)Nc1nc2cnc(-c3c(C)cccc3C)cn2n1 | 11% |
| CC(C)(C)Nc1c(C2CC2)nc2[nH]cnn12 | 26% |
| O=c1cc(-c2ccccc2F)nc2[nH]ccn12 | 24% |

Target: EPHB3 (human) (UniProt P54753)
Experiment: radiometric filter-binding kinase assay
Settings: compound 100.0 µM; ATP 20 µM

| SMILES | inhibition |
| --- | --- |
| CC(=O)Nc1nc2cnc(-c3c(C)cccc3C)cn2n1 | 4% |
| CC(C)(C)Nc1c(C2CC2)nc2[nH]cnn12 | 68% |
| O=c1cc(-c2ccccc2F)nc2[nH]ccn12 | 0% |

Target: DYRK1A (human) (UniProt Q13627)
Experiment: radiometric filter-binding kinase assay
Settings: compound 100.0 µM; ATP 50 µM

| SMILES | inhibition |
| --- | --- |
| CC(=O)Nc1nc2cnc(-c3c(C)cccc3C)cn2n1 | 0% |
| CC(C)(C)Nc1c(C2CC2)nc2[nH]cnn12 | 0% |
| O=c1cc(-c2ccccc2F)nc2[nH]ccn12 | 31% |

Target: EPHB4 (human) (UniProt P54760)
Experiment: radiometric filter-binding kinase assay
Settings: compound 100.0 µM; ATP 5 µM

| SMILES | inhibition |
| --- | --- |
| CC(=O)Nc1nc2cnc(-c3c(C)cccc3C)cn2n1 | 27% |
| CC(C)(C)Nc1c(C2CC2)nc2[nH]cnn12 | 19% |
| O=c1cc(-c2ccccc2F)nc2[nH]ccn12 | 6% |

Target: MYLK (human) (UniProt Q15746)
Experiment: radiometric filter-binding kinase assay
Settings: compound 100.0 µM; ATP 50 µM

| SMILES | inhibition |
| --- | --- |
| CC(=O)Nc1nc2cnc(-c3c(C)cccc3C)cn2n1 | 0% |
| CC(C)(C)Nc1c(C2CC2)nc2[nH]cnn12 | 14% |
| O=c1cc(-c2ccccc2F)nc2[nH]ccn12 | 13% |

Target: MELK (human) (UniProt Q14680)
Experiment: radiometric filter-binding kinase assay
Settings: compound 100.0 µM; ATP 50 µM

Chain of MELK (human) (Q14680 whole entry, looked up): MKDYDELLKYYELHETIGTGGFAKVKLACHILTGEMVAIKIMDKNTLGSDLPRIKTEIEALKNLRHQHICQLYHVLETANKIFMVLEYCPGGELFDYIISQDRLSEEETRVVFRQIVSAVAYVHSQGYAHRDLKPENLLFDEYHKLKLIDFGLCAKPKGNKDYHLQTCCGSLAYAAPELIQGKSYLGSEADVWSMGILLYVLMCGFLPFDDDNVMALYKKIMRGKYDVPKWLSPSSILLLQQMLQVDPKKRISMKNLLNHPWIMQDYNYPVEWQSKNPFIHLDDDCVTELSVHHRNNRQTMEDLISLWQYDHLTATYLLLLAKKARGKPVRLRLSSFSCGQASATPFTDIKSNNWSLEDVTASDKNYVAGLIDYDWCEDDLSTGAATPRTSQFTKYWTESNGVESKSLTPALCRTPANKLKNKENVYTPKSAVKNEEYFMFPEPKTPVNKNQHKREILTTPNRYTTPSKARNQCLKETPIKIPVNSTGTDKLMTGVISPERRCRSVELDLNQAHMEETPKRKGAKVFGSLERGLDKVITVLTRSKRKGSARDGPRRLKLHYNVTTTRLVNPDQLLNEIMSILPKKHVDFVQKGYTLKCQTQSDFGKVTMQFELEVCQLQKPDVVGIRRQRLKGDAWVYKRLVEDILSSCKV

| SMILES | inhibition |
| --- | --- |
| CC(=O)Nc1nc2cnc(-c3c(C)cccc3C)cn2n1 | 0% |
| CC(C)(C)Nc1c(C2CC2)nc2[nH]cnn12 | 0% |
| O=c1cc(-c2ccccc2F)nc2[nH]ccn12 | 1% |

Target: MARK4 (human) (UniProt Q96L34)
Experiment: radiometric filter-binding kinase assay
Settings: compound 100.0 µM; ATP 50 µM

Chain of MARK4 (human) (Q96L34 whole entry, looked up): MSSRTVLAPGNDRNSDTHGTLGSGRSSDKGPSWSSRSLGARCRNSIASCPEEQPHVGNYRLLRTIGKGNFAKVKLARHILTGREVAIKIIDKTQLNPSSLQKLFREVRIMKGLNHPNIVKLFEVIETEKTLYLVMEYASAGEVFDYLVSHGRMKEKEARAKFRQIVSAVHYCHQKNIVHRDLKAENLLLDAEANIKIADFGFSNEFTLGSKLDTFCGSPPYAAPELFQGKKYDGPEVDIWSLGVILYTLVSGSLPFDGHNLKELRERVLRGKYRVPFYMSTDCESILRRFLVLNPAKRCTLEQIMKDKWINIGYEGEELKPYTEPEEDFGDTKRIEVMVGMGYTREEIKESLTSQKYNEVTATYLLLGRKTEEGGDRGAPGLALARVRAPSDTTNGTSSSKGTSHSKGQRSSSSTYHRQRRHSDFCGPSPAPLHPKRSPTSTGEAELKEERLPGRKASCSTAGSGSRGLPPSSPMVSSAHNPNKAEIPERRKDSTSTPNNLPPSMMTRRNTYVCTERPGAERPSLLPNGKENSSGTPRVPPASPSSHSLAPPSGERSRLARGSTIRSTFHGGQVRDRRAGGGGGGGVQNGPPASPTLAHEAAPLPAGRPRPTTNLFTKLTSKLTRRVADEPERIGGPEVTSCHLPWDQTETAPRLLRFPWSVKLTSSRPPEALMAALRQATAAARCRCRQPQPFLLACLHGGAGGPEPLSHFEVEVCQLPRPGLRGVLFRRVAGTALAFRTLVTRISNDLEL

| SMILES | inhibition |
| --- | --- |
| CC(=O)Nc1nc2cnc(-c3c(C)cccc3C)cn2n1 | 17% |
| CC(C)(C)Nc1c(C2CC2)nc2[nH]cnn12 | 15% |
| O=c1cc(-c2ccccc2F)nc2[nH]ccn12 | 0% |
